Results published in paper PMC12956279 (2026).

Assays:
Assay in all cases: in-gel dye staining after TBE-urea PAGE
Details in all cases: 100 mM KCl, 1 mM MgCl2; 40 mM HEPES pH 7.5, 10 µM dye; very low fluorescence
[1] = tested on: 4LE-v2 (DNA, aptamer) TCCTTCGCACAGCACACCTGCCGTATTAGTAGGGATGATGCGGCAGTGGGCTTCGCAGAACAGTGTTTATTCTGCGAGGGGACTAAGCTCTGAATCAAGGATTTTAGGGAGGCGATTCCTCCTGCC
[2] = tested on: 4LE-v3 (DNA, aptamer) TCCTTCGCACAGCACACCTGCCGTATAGCTCTGAATCAATAGTAGGGATGATGCGGCAGTGGGCTTCGCAGAACAGTGTTTATTCTGCGAGGGGACTAGGATTTTAGGGAGGCGATTCCTCCTGCC
[3] = tested on: 4LE-v1 (DNA, aptamer) TCCTTCGCACAGCACATAGTAGGGATGATGCGGCAGTGGGCTTCGCAGAACAGTGTTTATTCTGCGAGGGGACTACCTGCCGTATAGCTCTGAATCAAGGATTTTAGGGAGGCGATTCCTCCTGCC

Measured: binding

CC1=N/C(=C\c2cc(F)c(O)c(F)c2)C(=O)N1CC(F)(F)F
weak: all assays above
